Data as given in US7485659B2, “Anticancer compositions, and methods of making and using the same” (Faustus Forschungs CIE, Translational Cancer Research GmbH, priority 2001, dated 2009).

How the values were obtained:
[1] = test system: human line of tumor cells CH1 (ovarian carcinoma); test: MTT assay, continuous 96 hour exposure, CH1; type: cell-based
Procedure: (§1) The cytotoxic effects of KP 1019 and combinations of KP 1339 and indazol in different molar ratios (administered as solution in the conventional cell culture medium MEM, supplemented with 10% fetal bovine serum, without the addition of organic solvents or dissolving agents) have been comparatively investigated on the human line of tumor cells SW480 (colon carcinoma) and CH1 (ovarian carcinoma) in the MTT assay under the application of a continuous 96 hour exposure to the active substance.

[2] = test system: human line of tumor cells SW480 (colon carcinoma); test: MTT assay, continuous 96 hour exposure, SW480; type: cell-based
Procedure: as §1

[3] = test system: stem cells of human solid tumors and continuous human tumor cell lines; test: In vitro antiproliferative experiments on stem cells of human solid tumors (nude mice xenografts) and continuous human tumor cell lines; type: cell-based; settings: stem cells of human solid tumors bred as nude mice xenografts
Water-solubility = type: physicochemical

Compound | concentration at which a cytotoxic effect is exhibited [1] [µM] | concentration at which a cytotoxic effect is exhibited [2] [µM] | antiproliferative effectiveness in vitro compared with KP 1019 [3] | tumor inhibiting (cytotoxic) activity compared with KP 1019 ([1]; MEM + 10% fetal bovine serum) | tumor inhibiting (cytotoxic) activity compared with KP 1019 ([2]; MEM + 10% fetal bovine serum) | water-solubility (in words) (Water-solubility) | water-solubility relative to KP 1019 (Water-solubility; compared with KP 1019)
c1ccc2[nH]ncc2c1 [Indazol, indazol, reference compound] | > 1000 | > 1000 |  |  |  |  | 
[Cl][Ru-]([Cl])([Cl])[Cl].[Na+].c1ccc2[nH]ncc2c1.c1ccc2[nH]ncc2c1 [KP 1339, sodium trans-[RuCl4(ind)2]] |  |  | clearly weaker antiproliferative effectiveness than KP 1019 | three to four times less effective than KP 1019 | three to four times less effective than KP 1019 | easily water-soluble | more than thirty times higher than KP 1019
